Reference: PubChem BioAssay (NCI)
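Growth conditions: 96-well plates. Treatment: test compound, 48 hours, 5 concentrations. Analysis: linear interpolation between bracketing concentrations; unreached endpoints set to highest concentration. GI50 = concentration required for 50% inhibition of growth. TGI denotes the concentration required for complete inhibition of growth.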

Tests used:
Assay in all cases: NCI-60 cell line screen, 48 h
KM12 colon = tested on: KM12 colon
NCI-H23 lung = tested on: NCI-H23 lung
MALME-3M melanoma = tested on: MALME-3M melanoma
SN12C renal = tested on: SN12C renal
SK-MEL-5 melanoma = tested on: SK-MEL-5 melanoma
HT29 colon = tested on: HT29 colon
SNB-75 CNS = tested on: SNB-75 CNS
HS 578T breast = tested on: HS 578T breast
T-47D breast = tested on: T-47D breast
BT-549 breast = tested on: BT-549 breast

N#Cc1c2ccccc2c(Cc2ccc3c(c2)OCCOCCOCCOCCOCCO3)c2ccccc12
TGI (KM12 colon): 17.9 µM
TGI (NCI-H23 lung): 25.3 µM
TGI (MALME-3M melanoma): 20.3 µM
TGI (SN12C renal): 22.8 µM
TGI (SK-MEL-5 melanoma): 17.5 µM

C/C=C/C(=O)Oc1cccc2cccnc12
TGI (KM12 colon): 42.4 µM
TGI (HT29 colon): 58 µM
TGI (NCI-H23 lung): 29 µM
TGI (SNB-75 CNS): > 75.6 µM
TGI (MALME-3M melanoma): 8.94 µM
TGI (SN12C renal): > 78.2 µM
TGI (SK-MEL-5 melanoma): 51 µM

CC1(C)C(=O)OC(n2cc(F)c(=O)[nH]c2=O)C1=O (stereo not given)
TGI (KM12 colon): > 100 µM
TGI (HT29 colon): > 100 µM
TGI (NCI-H23 lung): > 100 µM
TGI (SNB-75 CNS): > 100 µM
TGI (MALME-3M melanoma): > 100 µM
TGI (SN12C renal): > 100 µM

CC(C)(C)[Si](C)(C)OCC1OC(n2cnc3c(=O)[nH]cnc32)CC1O (stereo not given)
TGI (KM12 colon): > 100 µM
TGI (HT29 colon): > 100 µM
TGI (HS 578T breast): > 100 µM
TGI (NCI-H23 lung): > 100 µM
TGI (T-47D breast): > 100 µM
TGI (SNB-75 CNS): > 100 µM
TGI (MALME-3M melanoma): > 100 µM
TGI (SN12C renal): > 100 µM
TGI (SK-MEL-5 melanoma): > 100 µM

COc1ccc(CN2C(=O)[C@@H]3Cc4c(OC)c(C)c(OC)c(OC)c4[C@H](/C2=C\c2cc(OC)c(OC)c(C)c2OC)N3C(=O)OC(C)C)cc1
TGI (KM12 colon): > 100 µM
TGI (HT29 colon): > 100 µM
TGI (NCI-H23 lung): > 100 µM
TGI (SNB-75 CNS): > 100 µM
TGI (MALME-3M melanoma): > 100 µM
TGI (SN12C renal): > 100 µM
TGI (SK-MEL-5 melanoma): > 100 µM

CC[C@@H](C)/C=C(C)/C=C/C(=O)c1c(O)c(-c2ccc(OC(=O)[C@@]34CC[C@@](C)(C(=O)O3)C4(C)C)cc2)cn(O)c1=O
GI50 (KM12 colon): 3850 nM
TGI (KM12 colon): > 50 µM
GI50 (HT29 colon): 21.2 µM
TGI (HT29 colon): > 50 µM
GI50 (HS 578T breast): 3.33 µM
TGI (HS 578T breast): > 50 µM
GI50 (NCI-H23 lung): 2410 nM
TGI (NCI-H23 lung): > 50 µM
GI50 (T-47D breast): 1940 nM
TGI (T-47D breast): > 50 µM
GI50 (SNB-75 CNS): 4.34 µM
TGI (SNB-75 CNS): > 50 µM
GI50 (MALME-3M melanoma): 1500 nM
TGI (MALME-3M melanoma): > 50 µM
GI50 (SN12C renal): 2470 nM
TGI (SN12C renal): > 50 µM
GI50 (SK-MEL-5 melanoma): 1400 nM
TGI (SK-MEL-5 melanoma): 4.63 µM

Nc1ccccc1C#C/C=C\C#Cc1ccccc1C#CCO
GI50 (KM12 colon): 1810 nM
TGI (KM12 colon): 7.8 µM
GI50 (HS 578T breast): 8.89 µM
TGI (HS 578T breast): 27.8 µM
GI50 (NCI-H23 lung): 1830 nM
TGI (NCI-H23 lung): 6.9 µM
GI50 (T-47D breast): 16900 nM
TGI (T-47D breast): > 50 µM
GI50 (SNB-75 CNS): 18 µM
TGI (SNB-75 CNS): 42.1 µM
GI50 (SN12C renal): 9460 nM
TGI (SN12C renal): 27.4 µM
GI50 (SK-MEL-5 melanoma): 6100 nM
TGI (SK-MEL-5 melanoma): 14.1 µM
GI50 (BT-549 breast): 10.9 µM
TGI (BT-549 breast): 41.6 µM

CN(C)NC(=O)/C(=C/c1ccc(Cl)cc1)NC(=O)c1ccccc1
TGI (KM12 colon): > 100 µM
TGI (HT29 colon): > 100 µM
TGI (NCI-H23 lung): > 100 µM
TGI (SNB-75 CNS): > 100 µM
TGI (MALME-3M melanoma): > 100 µM
TGI (SN12C renal): > 100 µM
TGI (SK-MEL-5 melanoma): > 100 µM

NCCCNc1nc2ccccc2c2c(=O)c3cc(F)ccc3sc12
GI50 (KM12 colon): 1800 nM
TGI (KM12 colon): 3.36 µM
GI50 (HT29 colon): 1.54 µM
TGI (HT29 colon): 3.14 µM
GI50 (NCI-H23 lung): 1640 nM
TGI (NCI-H23 lung): 3.19 µM
GI50 (T-47D breast): 1630 nM
TGI (T-47D breast): 3.58 µM
GI50 (SNB-75 CNS): 1.31 µM
TGI (SNB-75 CNS): 2.64 µM
GI50 (MALME-3M melanoma): 1710 nM
TGI (MALME-3M melanoma): 3.22 µM
GI50 (SN12C renal): 1480 nM
TGI (SN12C renal): 2.93 µM
GI50 (SK-MEL-5 melanoma): 1730 nM
TGI (SK-MEL-5 melanoma): 3.13 µM
GI50 (BT-549 breast): 1.51 µM
TGI (BT-549 breast): 2.96 µM

CCOC(=O)C1=C(C)NC(=O)NC1c1ccc(OC)cc1OC (stereo not given)
TGI (KM12 colon): > 100 µM
TGI (HT29 colon): > 100 µM
TGI (NCI-H23 lung): > 100 µM
TGI (SNB-75 CNS): > 100 µM
TGI (MALME-3M melanoma): > 100 µM
TGI (SN12C renal): > 100 µM
TGI (SK-MEL-5 melanoma): > 100 µM
